{"source": "paper PMC10044725", "about": "“Antioxidant, Anti-Inflammatory and Anti-Diabetic Activities of Tectona grandis Methanolic Extracts, Fractions, and Isolated Compounds” (Antioxidants, 2023)", "key": {"TNF-α": {"test_system": "TNF-α", "assay": "TNF-α secretion in LPS-stimulated RAW 264.7 macrophages (ELISA)", "assay_type": "cell-based, mouse", "conditions": "40 µM, LPS 1 µg/mL, 48 h, vs model control (p < 0.01)", "description": "In order to increase cytokine production, macrophages were treated with LPS at a final concentration of 1 µg/mL, and then with T. grandis compounds at 40 µM. The compounds were solubilized in DMEM medium containing 0.1% DMSO. Dexamethasone was employed as a positive control (5 µg/mL). A centrifuge was used to separate the supernatant from the cells after 48 h of incubation, with three replicates per group. Quantification of TNF-α, IL-1β and IL-6 secretion was achieved by following the ELISA manufacturer's instructions. Then, absorbance was measured at 450 nm. Relative TNF-α, IL-1β and IL-6 expression was calculated according to Equation (4). Following the inflammatory factor test, cell viability was detected by CellTiter96® Aqueous One Solution Cell Proliferation Assay. Then, 20 μL/well CellTiter96® Aqueous One Solution Cell Growth Assay reagent was added to the plate and incubated at 37 °C for 8 h, absorbance was measured at […] and relative cell viability was calculated according to Equation (5). Relative content of inflammatory cytokines (%) = (A1/A2)/A3 × 100%(4) where A1 is the concentrations value of inflammatory cytokines of each group, A2 is the relative cell viability of each group (model group is 100) and A3 is the concentration of inflammatory cytokines of model group. Cell viability rate (%) = B1/B2 × 100%(5) where B1 is the OD value of each fraction group or positive control group and B2 is the OD value of the model control."}, "3T3-L1 adipocytes": {"test_system": "3T3-L1 adipocytes", "assay": "Glucose uptake assay in 3T3-L1 adipocytes", "assay_type": "cell-based, mouse", "conditions": "compounds at 40 µM, 48 h (Figure 11A(b))", "description": "Mouse 3T3-L1 preadipocyte cells were maintained in DMEM supplemented with 10% NBCS and 1% P/S at 37 °C in a humidified environment with 5% CO2, and then began starvation when the cells grew to 80% confluence (day 0). To facilitate differentiation to adipocytes, 2-days post-confluent cells were placed in 10% FBS DMEM supplemented with 1% P/S, 0.5 mM IBMX, 1 μM Dex, 1 μM Rosi and 100 nM insulin (day 2). For another three days (day 5), the medium was changed to high glucose DMEM containing 10% FBS, 1% P/S and 100 nM insulin for one day (day 6), and the 3T3-L1 preadipocytes were fully differentiated into mature adipocytes.\nNext, differentiated 3T3-L1 adipocytes at a density of 5 × 10^4 cells/well were cultured with DMEM in 96-well plates and divided into the blank control group, model group, insulin group (100 ng/mL), berberine group (10 μg/mL) and compound groups (40 μM). […] After 24 and 48 h of culture, glucose uptake was initiated by the addition of […] medium and 190 μL glucose detection reagent to each well, reaction at 37 °C for 15 min, and the glucose uptake was measured according to the operating instructions of the glucose content determination kit. Following the glucose uptake test, cell viability was detected by CellTiter96® Aqueous One Solution Cell Proliferation Assay. […] Absorbance was measured at 490 nm and relative cell viability was calculated according to Equation (7). […]"}, "[1]": {"assay": "Ferric reducing antioxidant power (FRAP) assay", "conditions": "compounds at 50 μM; Trolox equivalent", "description": "The FRAP assay was determined in accordance with the instructions for the FRAP kit. The total antioxidant activity values were estimated using the Trolox equivalent antioxidant capacity test. Initially, the detection concentration of methanolic extract and different fractions was 80 μg/mL, and the detection concentration of compounds (1–23) was 50 μM. Then, 190 μL of FRAP working reagent was mixed with 10 μL sample and incubated at room temperature for 20 min. The absorbance was then measured using a microplate reader at 593 nm, and the scavenging activity was calculated according to Equation (3). The blank control group used DMSO to replace the sample. […] The analysis was performed in triplicates, 0.8054, 0.0134 was a constant."}, "[2]": {"assay": "DPPH free radical scavenging assay", "conditions": "isolated compounds; half scavenging concentration; read-out: DPPH Assay SC50", "description": "The DPPH free radical scavenging activities of T. grandis methanolic extract, different fractions and its compounds were conducted according to Dr. Yang et al.. […] The absorbance was measured using a microplate reader at 517 nm, and ascorbic acid was used as a positive control. The DPPH scavenging activity was calculated according to the following formula: Scavenging activity (%) = [1 − (A1 − A2)/(A3 − A4)] × 100% (1) where A1 is the OD value of the tested samples, A2 is the OD value of the sample control, A3 is the OD value of the negative control and A4 is the OD value of the blank control. The analysis was performed in triplicates and the results were described as SC50 values."}, "[3]": {"assay": "ABTS radical cation scavenging assay (Trolox equivalent)", "conditions": "compounds at 50 μM", "description": "The ABTS radical cation (ABTS•+) scavenging activities were conducted in accordance with the instructions for the ABTS kit. The total antioxidant activity values were estimated using the Trolox equivalent antioxidant capacity test. The detection concentration of methanolic extract and different fractions was 80 μg/mL, and the detection concentration of compounds (1–23) was 50 μM. […] Then, 190 μL of ABTS working reagent was mixed with 10 μL sample and incubated at room temperature for 5 min. The absorbance was then measured using a microplate reader at 734 nm, and the scavenging activity was calculated according to Equation (2). The blank control group used DMSO to replace the sample. […] The analysis was performed in triplicates, 1.424, 0.0012 was a constant."}, "BSA": {"test_system": "BSA", "assay": "Prevention of AAPH-induced protein oxidative damage", "parameters": "species or system Bovine", "conditions": "AAPH 160 mM; residual BSA", "description": "The protective activities of T. grandis methanolic extract, different fractions and its compounds 15 and 23 on protein oxidative damage were carried out using the method of Yang et al.. Initially, 20 μL BSA solutions (1 mg/mL) in PBS (0.1 M, pH 6.8) were mixed with different concentrations of fractions (40 μL) and compounds (40 μL) and incubated in water at 37 °C for 30 min. Then, 40 μL AAPH (160 mM) was added to the mixture and the reaction continued for 4 h. The control group used the same volume of PBS (0.1 M, pH 6.8) to replace AAPH. The pre-treated samples were added to 5 × SDS loading buffer and treated in water at 95 °C for 15 min. […] After electrophoresis, the gels were stained with Coomassie brilliant blue R-250 dye (0.25%, w/v), and then the gels were decolorized with the decolorizing solution. Finally, images were taken using the SDS-PAGE gel imaging system (ChampChemi 610, China) and the grayscale of Western blot was analyzed using Image J software."}}, "note": "Marks after values point to notes of the source that are not given here.", "data": [{"smiles": "O=C(O)c1cc(O)c(O)c(O)c1", "note": "[Compound 23, gallic acid]", "values": [{"measurement": "effect on TNF-α inflammatory factor level", "setting": "TNF-α", "value": "could decrease"}, {"measurement": "effect on glucose uptake", "setting": "3T3-L1 adipocytes", "value": "significantly promote"}, {"measurement": "FRAP Assay", "setting": "[1]", "value": "1.03 ± 0.01 ^a mmol Trolox/L"}, {"measurement": "EC50", "setting": "[2]", "value": "320 ± 70", "unit": "nM"}, {"measurement": "ABTS Assay", "setting": "[3]", "value": "0.95 ± 0.02 ^a mmol Trolox/L"}, {"measurement": "concentration at which a protective effect against protein oxidative damage begins", "setting": "BSA", "value": 320, "unit": "µM"}]}]}
